“Also recorded” adds a separate entry of the source. Like-named read-outs stand apart in the source and are kept apart here.
Tests used:
L1210 leukemia = assay: Survival time of mice bearing the L1210 leukemia; type: in vivo, mouse (CDF-1 mice); details: for Av. Change wt. %: L1210 mice; for response vs control in vivo at 50 mg/kg / response vs control in vivo at 100 mg/kg / response vs control in vivo at 150 mg/kg: Mus musculus, read-out: % T/C; for activity against the L1210 leukemia (in words): mouse, in vivo; for Max. % T/C L1210 Leukemia: Table V
Excerpt: The ascites cell forms of the L1210 leukemia, Sarcoma 180 and P388 leukemia were propagated in CDF-1 mice. […] Mice were weighed during the course of the experiments, and the percentage change in body weight from the onset to termination of therapy was used as an indication of host toxicity.
Each value represents the average of 5 animals per group.

B16 melanoma = assay: Survival time of mice bearing the B16 melanoma; type: in vivo, mouse (C57B1 mice); details: for Max. % T/C: Table IV, B16, at optimum effective daily dose; for Av. Change in wt., %: at optimum effective daily dose, B16 mice; for Max. % T/C B16 Melanoma: Table V
Experimental: This tumor was propagated in C57B1mice. Transplantation was carried out by removing tumors from donor mice bearing 14-day subcutaneous tumor growths. The tissue was fragmented to make a well-dispersed cellular suspension and diluted with Fischer's medium without serum so that one gram of tissue was suspended in 5 ml of solution. A portion (0.2 ml) of the resulting cell suspension was injected intraperitoneally into each recipient animal. All compounds were administered over a wide range of dosage levels by intraperitoneal injection, beginning 24 hours after tumor implantation, once daily for 6 consecutive days. The test compounds were injected as fine suspensions following homogenization in 2 to 3 drops of 20% aqueous Tween 80 and then made up to volume with isotonic saline. […] Mice were weighed during the course of the experiments, and the percent change in body weight from onset to termination of therapy was used as an indication of drug toxicity. Determination of the sensitivity of neoplasms to these agents was based on the prolongation of survival time afforded by the drug treatments.
^a Administered once daily for six consecutive days, beginnign 24
hours after tumor transplanation, with 5 animals being used per group.
^b Average change in body weight from onset to termination of therapy
^c % T/C = average survival time of treated/control animals ×
100. Each value represents the average of 5 animals per group.

[1] = 50 mg/kg once daily for six days
[2] = 100 mg/kg once daily for six days
[3] = 150 mg/kg once daily for six days
[4] = 144 h, 50 mg/kg once daily for six days, L1210
[5] = 144 h, 100 mg/kg once daily for six days, L1210

SMILES	Max. % T/C L1210 Leukemia (L1210 leukemia) [% T/C]	Max. % T/C B16 Melanoma (B16 melanoma) [% T/C]	other results
Cc1ccc(S(=O)(=O)N(C)NS(=O)(=O)Cc2ccccc2)cc1 [Compound 6, N'-benzylsulfonyl-N-methyl-N-(p-toluenesulfonyl)hydrazine]			Average Survival Time of Treated Animals, days ± SE (L1210 leukemia; [1]): 16.0 ± 3.4 days; Av. Change wt. % (L1210 leukemia; [1]): +10.8%; Average Survival Time of Treated Animals, days ± SE (L1210 leukemia; [2]): 12.6 ± 0.8 days; Av. Change wt. % (L1210 leukemia; [2]): +2.4%; Average Survival Time of Treated Animals, days ± SE (L1210 leukemia; [3]): 14.6 ± 1.9 days; Av. Change wt. % (L1210 leukemia; [3]): -4.3%; response vs control in vivo at 50 mg/kg (L1210 leukemia; [4]): 174%; response vs control in vivo at 100 mg/kg (L1210 leukemia; [5]): 137%; response vs control in vivo at 150 mg/kg (L1210 leukemia; 144 h, 150 mg/kg once daily for six days, L1210): 159%; activity against the L1210 leukemia (in words) (L1210 leukemia): comparable to that of compounds 1-3 and 5; also recorded: relatively high level of activity; increase in survival time of mice bearing the L1210 leukemia (L1210 leukemia; optimal daily dosage level): 74%; Max. % T/C (B16 melanoma): 172 % T/C; Av. Change in wt., % (B16 melanoma): -2.4%
CN(NS(=O)(=O)c1ccc2ccccc2c1)S(=O)(=O)c1ccc2ccccc2c1 [Compound 11, Nmethyl-N,N'bis(2-naphthalenesulfonyl)hydrazine]			Average Survival Time of Treated Animals, days ± SE (L1210 leukemia; [1]): 11.4 ± 1.1 days; Av. Change wt. % (L1210 leukemia; [1]): +6.9%; Average Survival Time of Treated Animals, days ± SE (L1210 leukemia; [2]): 10.2 ± 0.4 days; Av. Change wt. % (L1210 leukemia; [2]): +3.0%; Average Survival Time of Treated Animals, days ± SE (L1210 leukemia; [3]): 14.0 ± 2.3 days; Av. Change wt. % (L1210 leukemia; [3]): -3.3%; response vs control in vivo at 50 mg/kg (L1210 leukemia; [4]): 127%; response vs control in vivo at 100 mg/kg (L1210 leukemia; [5]): 113%; response vs control in vivo at 150 mg/kg (L1210 leukemia; L1210, 144 h): 156%; Max. % T/C (B16 melanoma): 164 % T/C; Av. Change in wt., % (B16 melanoma): +4.6%
Cc1ccc(S(=O)(=O)NN(C)S(=O)(=O)c2ccccc2)cc1 [Compound 14]	153	178	
COc1ccc(S(=O)(=O)NN(C)S(=O)(=O)c2ccccc2)cc1 [Compound 15]	136	191	
CN(NS(=O)(=O)c1ccc(Cl)cc1)S(=O)(=O)c1ccccc1 [Compound 16]	122	148	
CN(NS(=O)(=O)c1ccc2ccccc2c1)S(=O)(=O)c1ccccc1 [Compound 18]		181	
CN(NS(=O)(=O)c1ccc(Br)cc1)S(=O)(=O)c1ccccc1 [Compound 19]		187	
Cc1ccc(S(=O)(=O)N(C)NS(=O)(=O)c2ccc(Br)cc2)cc1 [Compound 20, N'-(p-bromobenzenesulfonyl)-N-methyl-N-(p-toluenesulfonyl)hydrazine]	169	161	
Cc1ccc(S(=O)(=O)N(C)NS(=O)(=O)c2ccc3ccccc3c2)cc1 [Compound 21, N'-(2-naphthalenesulfonyl)-N-methyl-N-(p-toluenesulfonyl)hydrazine]	134		
Cc1ccc(S(=O)(=O)N(C)NS(=O)(=O)c2ccc([N+](=O)[O-])cc2)cc1 [Compound 22]		192	
COc1ccc(S(=O)(=O)N(C)NS(=O)(=O)c2ccccc2)cc1 [Compound 23]	178	151	
COc1ccc(S(=O)(=O)N(C)NS(=O)(=O)c2ccc(Cl)cc2)cc1 [Compound 24, N'-(p-chlorobenzenesulfonyl)-N-(p-methoxybenzene-sulfonyl)-N-methylhydrazine]		170	
COc1ccc(S(=O)(=O)N(C)NS(=O)(=O)c2ccc(Br)cc2)cc1 [Compound 25]	134	205	
COc1ccc(S(=O)(=O)N(C)NS(=O)(=O)c2ccc3ccccc3c2)cc1 [Compound 27]		163	
COc1ccc(S(=O)(=O)N(C)NS(=O)(=O)Cc2ccccc2)cc1 [Compound 28]	152	160	
COc1ccc(S(=O)(=O)N(C)NS(C)(=O)=O)cc1 [Compound 29]	274	204	activity against the L1210 leukemia (in words) (L1210 leukemia): highest increases in survival time
CN(NS(=O)(=O)c1ccccc1)S(=O)(=O)c1ccc(Cl)cc1 [Compound 31, N'-benzenesulfonyl-N-(p-chlorobenzenesulfonyl)-N-methylhydrazine]	111	146	
COc1ccc(S(=O)(=O)NN(C)S(=O)(=O)c2ccc(Cl)cc2)cc1 [Compound 32, N-(p-chlorobenzenesulfonyl)-N'-(p-methoxybenzenesulfonyl)-N-methylhydrazine]	130	153	
CN(NS(=O)(=O)c1ccc2ccccc2c1)S(=O)(=O)c1ccc(Cl)cc1 [Compound 33, N-(p-chlorobenzenesulfonyl)-N-methyl-N'-(2-naphthalenesulfonyl)hydrazine]	109	153	
CN(NS(=O)(=O)C=Cc1ccccc1)S(=O)(=O)c1ccc(Cl)cc1 [Compound 34]		143	
CN(NS(C)(=O)=O)S(=O)(=O)c1ccc(Cl)cc1 [Compound 35, N-(p-chlorobenzenesulfonyl)-N'-methanesulfonyl-N-methylhydrazine]	167	194	
CCS(=O)(=O)NN(C)S(=O)(=O)c1ccc(Cl)cc1 [Compound 36]		164	

SMILES	Max. % T/C L1210 Leukemia (L1210 leukemia) [% T/C]	Max. % T/C B16 Melanoma (B16 melanoma) [% T/C]	other results
CN(NS(=O)(=O)c1ccccc1)S(=O)(=O)c1ccc(Br)cc1 [Compound 37, N'-benzenesulfonyl-N-(p-bromobenzenesulfonyl)-N-methylhydrazine]		160	
Cc1ccc(S(=O)(=O)NN(C)S(=O)(=O)c2ccc(Br)cc2)cc1 [Compound 38, N-(p-bromobenzenesulfonyl)-N-methyl-N'-(p-toluenesulfonyl)hydrazine]	127		
COc1ccc(S(=O)(=O)NN(C)S(=O)(=O)c2ccc(Br)cc2)cc1 [Compound 39, N-(p-bromobenzenesulfonyl)-N'-(p-methoxybenzene-sulfonyl)-N-methylhydrazine]	165	167	
CN(NS(=O)(=O)c1ccc(Cl)cc1)S(=O)(=O)c1ccc(Br)cc1 [Compound 40, N-(p-bromobenzenesulfonyl)-N'-(p-chlorobenzenesulfonyl)-N-methylhydrazine]		145	
CN(NS(=O)(=O)c1ccc(Br)cc1)S(=O)(=O)c1ccc(Br)cc1 [Compound 41, N,N'-bis(p-bromobenzenesulfonyl)-N-methylhydrazine]	183	161	
CN(NS(=O)(=O)c1ccc2ccccc2c1)S(=O)(=O)c1ccc(Br)cc1 [Compound 42, N-(p-bromobenzenesulfonyl)-N-methyl-N-(2-naphthalenesulfonyl)hydrazine]		146	
CN(NS(=O)(=O)C=Cc1ccccc1)S(=O)(=O)c1ccc(Br)cc1 [Compound 43, N-(p-bromobenzenesulfonyl)-N-methyl-N'-(2-styrenesulfonyl)hydrazine]		178	
CN(NS(C)(=O)=O)S(=O)(=O)c1ccc(Br)cc1 [Compound 44]		221	
CN(NS(=O)(=O)c1ccccc1)S(=O)(=O)c1ccc2ccccc2c1 [Compound 45, N'-benzenesulfonyl-N-methyl-N-(2naphthalenesulfonyl)hydrazine]	106	163	
Cc1ccc(S(=O)(=O)NN(C)S(=O)(=O)c2ccc3ccccc3c2)cc1 [Compound 46, N-(N'-naphthalenesulfonyl)-N-methyl-N'-(p-toluenesulronyl)hydrazine]	120		
CN(NS(=O)(=O)c1ccccc1)S(=O)(=O)Cc1ccccc1 [Compound 49, N'-benzenesulfonyl-N-benzylsulfonyl-N-methylhydrazine]	185	208	
Cc1ccc(S(=O)(=O)NN(C)S(=O)(=O)Cc2ccccc2)cc1 [Compound 50]	144	206	
COc1ccc(S(=O)(=O)NN(C)S(=O)(=O)Cc2ccccc2)cc1 [Compound 51]		182	
CN(NS(=O)(=O)c1ccc(Cl)cc1)S(=O)(=O)Cc1ccccc1 [Compound 52]	128	184	
CN(NS(=O)(=O)c1ccc(Br)cc1)S(=O)(=O)Cc1ccccc1 [Compound 53]		163	
CN(NS(=O)(=O)c1ccc2ccccc2c1)S(=O)(=O)Cc1ccccc1 [Compound 54]	115		
CN(NS(=O)(=O)Cc1ccccc1)S(=O)(=O)Cc1ccccc1 [Compound 55, N,N'-bis(benzylsulfonyl)-N-methylhydrazine]		152	
CN(NS(C)(=O)=O)S(=O)(=O)Cc1ccccc1 [Compound 56]		203	
CN(NS(=O)(=O)C=Cc1ccccc1)S(=O)(=O)C=Cc1ccccc1 [Compound 57]		171	
CC(=O)Nc1ccc(S(=O)(=O)N(C)NS(=O)(=O)c2ccc(Br)cc2)cc1 [Compound 58]		164	
Cc1ccc(S(=O)(=O)NN(C)S(=O)(=O)c2ccc(I)cc2)cc1 [Compound 59]	123	176	
CN(NS(C)(=O)=O)S(=O)(=O)c1ccc(I)cc1 [Compound 62]		195	
